# Data from patent US20240109881A1, “Heteroaryl Compounds as Ligand Directed Degraders of IRAK4” (Bristol-Myers Squibb Company, priority 2022, published 2024).
# Assays:
# IRAK4 [1] = biological target: T1, IRAK4 (Homo sapiens, UniProt Q9NWZ3); assay: ALE THP1 HTRF (Advanced Lipoxidation End Product THP1 Homogeneous Time Resolved Fluorescence); assay type: cell-based; details: THP1 cells
# T1 construct: endogenous in cells; host or cells: THP-1 cells
# T1 sequence (Q9NWZ3 1-460): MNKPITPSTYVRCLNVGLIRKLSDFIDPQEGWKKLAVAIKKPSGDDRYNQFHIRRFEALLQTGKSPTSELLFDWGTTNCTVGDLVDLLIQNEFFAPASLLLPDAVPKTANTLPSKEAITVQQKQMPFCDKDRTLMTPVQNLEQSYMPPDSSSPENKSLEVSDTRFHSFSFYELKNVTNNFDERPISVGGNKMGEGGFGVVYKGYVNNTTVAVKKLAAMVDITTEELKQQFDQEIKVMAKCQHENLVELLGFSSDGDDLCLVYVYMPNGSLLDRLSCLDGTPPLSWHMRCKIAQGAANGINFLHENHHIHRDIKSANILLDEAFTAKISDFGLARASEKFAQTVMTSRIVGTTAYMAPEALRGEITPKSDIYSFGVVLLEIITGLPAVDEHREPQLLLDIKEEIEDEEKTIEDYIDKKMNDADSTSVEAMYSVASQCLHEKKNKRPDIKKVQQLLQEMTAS
# Method: For Homogenous Time Resolved Fluorescence (HTRF) assays, a Cisbio HTRF kit was used, which included: Lysis Buffer #1 4×, Blocking Reagent #3 100×, 20× Antibody 1 (Anti-IRAK4 d2), 20× Antibody 2 (Anti-IRAK4 k), and Detection Buffer.
# 4× Lysis Buffer was stored at 4° C. For use as 1× Lysis buffer, the 4× solution was diluted with de-ionized water (distilled water, Gibco Cat. #15230279) and 100× Blocking Reagent in a 1:3:0.04 volume ratio.
# 20× Antibody Solution aliquots were stored in −80° C. and the Detection Buffer was stored in 4° C. For use as a 1× Antibody Solution, the 20× Antibody Solution aliquot was diluted with Detection Buffer in a 1:19 volume ratio.
# Cells were lysed at room temperature for 45 min with shaking. A BCA protein assay was performed and normalization was conducted to the desired total protein concentration with 1× lysis buffer. Next, 1× Antibody Solutions were prepared by adding 380 μL Detection Buffer to 20 μL 20× Antibody Solution aliquots and mixing well. 1× Antibody Solutions were combined 1:1 and briefly vortexed. For control wells, 20 μL 1× anti IRAK4-k Antibody Solution was saved. The 384-well plate (ProxiPlate-384 Plus, Perkin Elmer Cat. #6008289) was loaded by adding 4 μL of the mixed Antibody Solution to empty wells using a single channel repeater. Using a multi-channel repeater, 16 μL lysate was added per well, and any bubbles that were formed were popped with 20 μL pipette tips and Kimwipe edges. In column 10, triplicates of each control was prepared. In wells A10, B10, and C10, buffer control was prepared by adding 16 μL Lysis Buffer and 4 μL Detection Buffer. In wells D10, E10, and F10, cryptate control was prepared by adding 16 μL Lysis Buffer, 2 μL Detection Buffer, and 2 μL 1× anti IRAK4-k Antibody Solution. In wells G10, H10, and I10, a negative control was prepared by adding 16 μL Lysis Buffer and 4 μL mixed Antibody Solution. The plate was sealed with a clear seal and covered with an aluminum lid. The plate was spun down at 800 g for 5 min and incubated in the dark at room temperature overnight. The next day, the plate was spun down at 800 g for 5 min. The samples were analyzed by a plate reader (Envision, PerkinElmer) using the Desnor 384 HTRF program.
# IRAK4 [2] = biological target: T1, IRAK4; assay: LVL THP1 HTRF (THP1 Homogeneous Time Resolved Fluorescence); assay type: cell-based; details: THP1 cells, 18 h incubation with compound; for DC50: read-out: LVL THP1 HTRF EC50
# Procedure, shortened: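 THP-1 cells in phenol red-free RPMI with 10% FBS were dosed with compound (20 nL in DMSO) for 18 h at 37° C. After 2 h lysis, IRAK4 was detected with anti-IRAK4-d2/anti-IRAK4-K HTRF antibodies for 18 h at room temperature and read at 665/615 nm; a parallel CTG plate was run.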
smiles,measurement,setting,value
N#Cc1cnc2c(cnn2-c2cc(NC3CC3)c(C(=O)N[C@H]3CC[C@H]([C@@H]4C[C@H]4N4CCN(c5ccc(C6CCC(=O)NC6=O)cc5)CC4)CC3)cn2)c1 (relative stereo) [P-111],ALE THP1 HTRF YMIN,IRAK4 [1],15.6%
same,EC50,IRAK4 [1],24 nM
"CC1(c2ccc(N3CCN(CCC4CCC(NC(=O)c5cnc(-n6ncc7cc(C#N)cnc76)cc5NC5CC5)CC4)CC3)cc2)CCC(=O)NC1=O (single isomer, unassigned) [P-94]",ALE THP1 HTRF YMIN,IRAK4 [1],7.4%
same,EC50,IRAK4 [1],11 nM
"N#Cc1cnc2c(cnn2-c2cc(NC3CC3)c(C(=O)N[C@H]3CC[C@H](C4C[C@@H]4N4CCN(c5ccc(C6CCC(=O)NC6=O)cc5)CC4)CC3)cn2)c1 (single isomer, unassigned) [P-110]",ALE THP1 HTRF YMIN,IRAK4 [1],16.0%
same,EC50,IRAK4 [1],19 nM
"N#Cc1cnc2c(cnn2-c2cc(NC3CC3)c(C(=O)N[C@H]3CC[C@H](CCN4CCC(c5ccc(C6(F)CCC(=O)NC6=O)cc5)CC4)CC3)cn2)c1 (single isomer, unassigned) [P-125]",ALE THP1 HTRF YMIN,IRAK4 [1],9.8%
same,EC50,IRAK4 [1],10 nM
"N#Cc1cnc2c(cnn2-c2cc(NC3CC3)c(C(=O)N[C@H]3CC[C@H](CCN4CCC(c5ccc(C6(F)CCC(=O)NC6=O)cc5)CC4)CC3)cn2)c1 (single isomer, unassigned) [P-126]",ALE THP1 HTRF YMIN,IRAK4 [1],14.9%
same,EC50,IRAK4 [1],296 nM
C[C@H](C#N)Nc1cc(-n2ncc3cc(C#N)cnc32)ncc1C(=O)N[C@H]1CC[C@H](CCN2CCN(c3ccc(C4CCC(=O)NC4=O)cc3)CC2)CC1 (stereo in doubt) [P-128],ALE THP1 HTRF YMIN,IRAK4 [1],14.7%
same,EC50,IRAK4 [1],47 nM
O=C1CCC(N2C(=O)c3ccc(N4CCN(C(=O)C5CCC(NC(=O)c6cnc(Nc7ccc8ncsc8c7)cc6NC6CCCC6)CC5)CC4)cc3C2=O)C(=O)N1 (stereo not drawn) [P-2],ALE THP1 HTRF YMIN,IRAK4 [1],32.7%
same,EC50,IRAK4 [1],97 nM
"O=C1CCC(N2C(=O)c3ccc(N4CCN(C[C@H]5CC[C@H](NC(=O)c6cnc(Nc7ccc8ncsc8c7)cc6NC6CCCC6)CC5)CC4)cc3C2=O)C(=O)N1 (stereo partly drawn) [P-3, 6-(1,3-benzothiazol-6-ylamino)-4-(cyclopentylamino)-N-[4-[[4-[2-(2,6-dioxo-3-piperidyl)-1,3-dioxo-isoindolin-5-yl]piperazin-1-yl]methyl]cyclohexyl]pyridine-3-carboxamide]",ALE THP1 HTRF YMIN,IRAK4 [1],35.6%
same,EC50,IRAK4 [1],273 nM
"CS(=O)(=O)N1CCC(Nc2cc(Nc3ccc4ncsc4c3)ncc2C(=O)NC2CCC(C(=O)N3CCN(c4ccc5c(c4)C(=O)N(C4CCC(=O)NC4=O)C5=O)CC3)CC2)CC1 (stereo not drawn) [P-4, 6-(1,3-benzothiazol-6-ylamino)-N-[4-[4-[2-(2,6-dioxo-3-piperidyl)-1,3-dioxo-isoindolin-5-yl]piperazine-1-carbonyl]cyclohexyl]-4-[(1-methylsulfonyl-4-piperidyl)amino]pyridine-3-carboxamide]",ALE THP1 HTRF YMIN,IRAK4 [1],35.8%
same,EC50,IRAK4 [1],47 nM
O=C1CCC(N2C(=O)c3ccc(N4CCC(C(=O)NC5CCC(n6cc(-c7cnc(Nc8ccc9ncsc9c8)cc7NC7CCCC7)nn6)CC5)CC4)cc3C2=O)C(=O)N1 (stereo not drawn) [P-5],ALE THP1 HTRF YMIN,IRAK4 [1],17.1%
same,EC50,IRAK4 [1],54 nM
N#Cc1cnc2c(ccn2-c2cc(NC3CCCC3)c(C(=O)NC3CCC(C(=O)N4CCN(c5ccc6c(c5)C(=O)N(C5CCC(=O)NC5=O)C6=O)CC4)CC3)cn2)c1 (stereo not drawn) [P-6],ALE THP1 HTRF YMIN,IRAK4 [1],30.4%
same,EC50,IRAK4 [1],18 nM
O=C1CCC(N2C(=O)c3ccc(N4CCN(C(=O)C5CCC(NC(=O)c6cnc(Nc7ccn8nccc8n7)cc6NC6CCCC6)CC5)CC4)cc3C2=O)C(=O)N1 (stereo not drawn) [P-7],ALE THP1 HTRF YMIN,IRAK4 [1],30.8%
same,EC50,IRAK4 [1],37 nM
C[C@H]1CN(c2ccc3c(c2)C(=O)N(C2CCC(=O)NC2=O)C3=O)CCN1C(=O)C1CCC(NC(=O)c2cnc(Nc3ccc4ncsc4c3)cc2NC2CCCC2)CC1 (stereo partly drawn) [P-8],ALE THP1 HTRF YMIN,IRAK4 [1],40.8%
same,EC50,IRAK4 [1],27 nM
O=C1CCC(N2C(=O)c3ccc(N4CCN(C(=O)[C@H]5CC[C@H](n6cc(-c7cnc(Nc8ccc9ncsc9c8)cc7NC7CCCC7)nn6)CC5)CC4)cc3C2=O)C(=O)N1 (stereo partly drawn) [P-9],ALE THP1 HTRF YMIN,IRAK4 [1],20.0%
same,EC50,IRAK4 [1],25 nM
N#Cc1cnc2c(cnn2-c2cc(NC3CCCC3)c(C(=O)NC3CCC(C(=O)N4CCN(c5ccc6c(c5)C(=O)N(C5CCC(=O)NC5=O)C6)CC4)CC3)cn2)c1 (stereo not drawn) [P-10],ALE THP1 HTRF YMIN,IRAK4 [1],34.8%
same,EC50,IRAK4 [1],87 nM
O=C1CCC(c2ccc(NCC3CCN(C(=O)C4CCC(NC(=O)c5cnc(Nc6ccc7ncsc7c6)cc5NC5CCCC5)CC4)CC3)cc2)C(=O)N1 (stereo not drawn) [P-11],ALE THP1 HTRF YMIN,IRAK4 [1],47.5%
same,EC50,IRAK4 [1],1 nM
O=C1CCC(N2C(=O)c3ccc(N4CCN(C(=O)C5CCC(NC(=O)c6cnc(Nc7ccc8ncoc8c7)cc6NC6CCCC6)CC5)CC4)cc3C2=O)C(=O)N1 (stereo not drawn) [P-12],ALE THP1 HTRF YMIN,IRAK4 [1],47.7%
C[C@@H]1CN(c2ccc3c(c2)C(=O)N(C2CCC(=O)NC2=O)C3=O)C[C@H](C)N1C(=O)C1CCC(NC(=O)c2cnc(-n3ncc4cc(C#N)cnc43)cc2NC2CCCC2)CC1 (stereo partly drawn) [P-13],ALE THP1 HTRF YMIN,IRAK4 [1],43.4%
same,EC50,IRAK4 [1],82 nM
N#Cc1cnc2c(cnn2-c2cc(NC3CCCC3)c(C(=O)NC3CCC(C(=O)N4CCC(c5ccc6c(c5)C(=O)N(C5CCC(=O)NC5=O)C6)CC4)CC3)cn2)c1 (stereo not drawn) [P-14],ALE THP1 HTRF YMIN,IRAK4 [1],24.0%
same,EC50,IRAK4 [1],95 nM
CC(C)Nc1cc(-n2ncc3cc(C#N)cnc32)ncc1C(=O)N[C@H]1CC[C@H](CN2CCN(c3ccc4c(c3)C(=O)N(C3CCC(=O)NC3=O)C4)CC2)CC1 (stereo partly drawn) [P-15],ALE THP1 HTRF YMIN,IRAK4 [1],31.8%
same,EC50,IRAK4 [1],26 nM
Cc1cc(N2CC[C@H]3[C@@H]2CCN3CC[C@H]2CC[C@H](NC(=O)c3cnc(-n4ncc5cc(C#N)cnc54)cc3N[C@H](C)C#N)CC2)ccc1N1CCC(=O)NC1=O [P-490],LVL THP1 HTRF YMIN,IRAK4 [2],81.6%
same,DC50,IRAK4 [2],1000 nM
C[C@H](C#N)Nc1cc(-n2ncc3cc(C#N)cnc32)ncc1-n1cc([C@H]2CC[C@H](CCN3C[C@@H](C)N(c4ccc(N5CCC(=O)NC5=O)cc4)C[C@H]3C)CC2)nn1 [P-496],LVL THP1 HTRF YMIN,IRAK4 [2],2.7%
same,DC50,IRAK4 [2],127 nM
C[C@H](C#N)Nc1cc(-n2ncc3cc(C#N)cnc32)ncc1-n1cc([C@H]2CC[C@H](CCN3CCN(c4ccc5c(N6CCC(=O)NC6=O)nn(C)c5c4)[C@H](C)C3)CC2)nn1 [P-498],LVL THP1 HTRF YMIN,IRAK4 [2],−2.8%
same,DC50,IRAK4 [2],2 nM
"C[C@H](C#N)Nc1cc(-n2ncc3cc(C#N)cnc32)ncc1-n1cc(C2CCC(N3CCN(c4ccc(N5CCC(=O)NC5=O)cc4)CC3)CC2)nn1 (stereo partly drawn) [P-499, 1-(4-(((R)-1-cyanoethyl)amino)-5-(4-(4-(4-(4-(2,4-dioxotetrahydropyrimidin-1(2H)-yl)phenyl)piperazin-1-yl)cyclohexyl)-1H-1,2,3-triazol-1-yl)pyridin-2-yl)-1H-pyrazolo[3,4-b]pyridine-5-carbonitrile]",LVL THP1 HTRF YMIN,IRAK4 [2],13.6%
same,DC50,IRAK4 [2],172 nM
C[C@H](C#N)Nc1cc(-n2ncc3cc(C#N)cnc32)ncc1-c1cn([C@H]2CC[C@H](CCN3CCN(c4ccc(N5CCC(=O)NC5=O)cc4)[C@H](C)C3)CC2)nn1 [P-501],LVL THP1 HTRF YMIN,IRAK4 [2],−2.28%
same,DC50,IRAK4 [2],2.2 nM
C[C@H](C#N)Nc1cc(-n2ncc3cc(C#N)cnc32)ncc1-n1cc([C@H]2CC[C@H](CCN3CCN(c4ccc5c(N6CCC(=O)NC6=O)nn(C)c5c4)[C@@H](C)C3)CC2)nn1 [P-502],LVL THP1 HTRF YMIN,IRAK4 [2],−0.79%
same,DC50,IRAK4 [2],1.2 nM
